Assay results reported in the NIST ThermoML archive (doi:10.1021/je0501639).
Several values for one entry are separate records, joined by “and”; a condition that tells them apart may be missing. Equal values may be shown once. Numbers after ± are expanded uncertainties.

What was measured:
[1] = 100.8 kPa, Liquid
[2] = refractive index (Na D-line) (dimensionless); conditions: 101.33 kPa, Liquid, Standard Abbe refractometry
[3] = xn = mol fraction of the nth substance listed; conditions: 100.8 kPa, Liquid
[4] = refractive index (Na D-line) (dimensionless); xn = mol fraction of the nth substance listed; conditions: 100.8 kPa, Liquid, Standard Abbe refractometry

CC(C)CC(C)(C)C [2,2,4-trimethylpentane]
Conditions	mass density, 298.15 K [kg/m3]	mass density, 308.15 K [kg/m3]	mass density, 318.15 K [kg/m3]	refractive index, 298.15 K	refractive index, 308.15 K	refractive index, 318.15 K	viscosity, 298.15 K	viscosity, 308.15 K [mPa·s]	viscosity, 318.15 K [mPa·s]
[1]	687.89 ± 0.32	679.55 ± 0.33	671.1 ± 0.34	–	–	–	0.474 ± 0.014 mPa·s and 0.475 ± 0.014 mPa·s	0.425 ± 0.014	0.38 ± 0.013
[2]	–	–	–	1.38898 ± 0.00032	1.38398 ± 0.00032	1.37898 ± 0.00032	–	–	–

CC(C)CC(C)(C)C [2,2,4-trimethylpentane] + CC(C)(C)O
x2 = 0
Conditions	mass density, 298.15 K [kg/m3]	mass density, 308.15 K [kg/m3]	mass density, 318.15 K [kg/m3]	refractive index, 298.15 K	refractive index, 308.15 K	refractive index, 318.15 K	viscosity, 298.15 K [mPa·s]	viscosity, 308.15 K [mPa·s]	viscosity, 318.15 K [mPa·s]
[3]	687.89 ± 0.32	679.55 ± 0.33	671.1 ± 0.34	–	–	–	0.475 ± 0.018	0.425 ± 0.017	0.38 ± 0.016
[4]	–	–	–	1.38898 ± 0.00032	1.38398 ± 0.00032	1.37898 ± 0.00032	–	–	–

CC(C)(C)O [2-methylpropan-2-ol]
Conditions	mass density, 298.15 K [kg/m3]	mass density, 308.15 K [kg/m3]	mass density, 318.15 K [kg/m3]	refractive index, 298.15 K	refractive index, 308.15 K	refractive index, 318.15 K
[1]	780.99 ± 0.31	770.7 ± 0.31	760.05 ± 0.32	–	–	–
[2]	–	–	–	1.38481 ± 0.00033	1.3796 ± 0.00033	1.37416 ± 0.00033

[1], Falling or rolling sphere viscometry
Conditions	viscosity [mPa·s]
298.15 K	4.43 ± 0.04
308.15 K	2.622 ± 0.027
318.15 K	1.708 ± 0.02

CCO [ethanol]
Conditions	mass density, 298.15 K [kg/m3]	mass density, 308.15 K [kg/m3]	mass density, 318.15 K [kg/m3]	refractive index, 298.15 K	refractive index, 308.15 K	refractive index, 318.15 K
[1]	785.1 ± 0.24	776.43 ± 0.25	767.61 ± 0.26	–	–	–
[2]	–	–	–	1.35932 ± 0.00031	1.35509 ± 0.00031	1.351 ± 0.00031 and 1.35095 ± 0.00031

[1], Falling or rolling sphere viscometry
Conditions	viscosity [mPa·s]
298.15 K	1.085 ± 0.014
308.15 K	0.906 ± 0.014
318.15 K	0.756 ± 0.013

CCO [ethanol] + CC(C)(C)O
[3], Falling or rolling sphere viscometry, x1 = 1
Conditions	viscosity [mPa·s]
298.15 K	1.085 ± 0.014
308.15 K	0.906 ± 0.014
318.15 K	0.756 ± 0.013

x1 = 1
Conditions	mass density, 298.15 K [kg/m3]	mass density, 308.15 K [kg/m3]	mass density, 318.15 K [kg/m3]	refractive index, 298.15 K	refractive index, 308.15 K	refractive index, 318.15 K
[3]	785.1 ± 0.24	776.43 ± 0.25	767.61 ± 0.26	–	–	–
[4]	–	–	–	1.35932 ± 0.00031	1.35509 ± 0.00031	1.351 ± 0.00031

CCO [ethanol] + CC(C)CC(C)(C)C
x1 = 1
Conditions	mass density, 298.15 K [kg/m3]	mass density, 308.15 K [kg/m3]	mass density, 318.15 K [kg/m3]	refractive index, 298.15 K	refractive index, 308.15 K	refractive index, 318.15 K	viscosity, 298.15 K [mPa·s]	viscosity, 308.15 K [mPa·s]	viscosity, 318.15 K [mPa·s]
[3]	785.1 ± 0.24	776.43 ± 0.25	767.61 ± 0.26	–	–	–	1.085 ± 0.02	0.906 ± 0.018	0.756 ± 0.016
[4]	–	–	–	1.35932 ± 0.00031	1.35509 ± 0.00031	1.35095 ± 0.00031	–	–	–
